Measurements published in patent US20230203098A1, “HUMAN TRANSFERRIN RECEPTOR BINDING PEPTIDE” (priority 2020, published 2023).
Like-named read-outs stand apart in the source and are kept apart here. Blank lines part the entries; values can stand above or below the molecule they belong to. Where a SMILES comes first, the peptide text is derived from it. Bridges are numbered along the chain shown (N, C = ends). [ ]: non-standard residue; d: D form. Trp(1-CH2COOH) = N[C@@H](Cc1cn(CC(=O)O)c2ccccc12)C(=O)O; PEG12 = NCCOCCOCCOCCOCCOCCOCCOCCOCCOCCOCCOCCOCCC(=O)O; NMePhe(3-Cl) = CN[C@@H](Cc1cccc(Cl)c1)C(=O)O; NMeW = CN[C@@H](Cc1c[nH]c2ccccc12)C(=O)O; Phe(4-F) = N[C@@H](Cc1ccc(F)cc1)C(=O)O; NMeY = CN[C@@H](Cc1ccc(O)cc1)C(=O)O; NMeF = CN[C@@H](Cc1ccccc1)C(=O)O; Aad = N[C@@H](CCCC(=O)O)C(=O)O; PEG4 = NCCOCCOCCOCCOCCC(=O)O; Tle = CC(C)(C)[C@H](N)C(=O)O; hLys = NCCCCC[C@H](N)C(=O)O; Orn = NCCC[C@H](N)C(=O)O; Aib = CC(C)(N)C(=O)O

Target: transferrin receptor (hTfR) (Homo sapiens, UniProt P02786)
Sequence (P02786 whole entry): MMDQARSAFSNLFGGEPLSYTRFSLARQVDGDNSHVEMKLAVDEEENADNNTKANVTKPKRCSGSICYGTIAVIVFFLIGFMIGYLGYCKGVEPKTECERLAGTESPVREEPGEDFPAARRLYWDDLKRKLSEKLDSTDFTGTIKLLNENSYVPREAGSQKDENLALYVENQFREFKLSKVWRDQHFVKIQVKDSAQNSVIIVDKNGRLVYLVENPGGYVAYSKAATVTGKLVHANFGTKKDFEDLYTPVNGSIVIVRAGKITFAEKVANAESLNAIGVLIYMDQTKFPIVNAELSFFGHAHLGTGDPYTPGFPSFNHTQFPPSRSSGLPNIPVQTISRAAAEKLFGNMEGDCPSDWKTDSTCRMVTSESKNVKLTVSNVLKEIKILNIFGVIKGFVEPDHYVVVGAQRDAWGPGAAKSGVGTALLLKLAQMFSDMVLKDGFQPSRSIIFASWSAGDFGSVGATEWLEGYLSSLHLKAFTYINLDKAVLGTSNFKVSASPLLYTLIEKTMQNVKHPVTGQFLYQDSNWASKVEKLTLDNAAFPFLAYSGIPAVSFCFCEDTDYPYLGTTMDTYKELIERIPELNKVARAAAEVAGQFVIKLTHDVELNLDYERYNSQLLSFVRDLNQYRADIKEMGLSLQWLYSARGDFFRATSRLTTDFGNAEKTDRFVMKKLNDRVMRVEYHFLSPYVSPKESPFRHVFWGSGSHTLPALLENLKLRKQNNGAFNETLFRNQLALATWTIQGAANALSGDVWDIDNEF
Assay: Intermolecular interaction evaluation test between transferrin receptor (hTfR) and peptide by surface plasmon resonance (SPR)
Type: binding
Summary of the method: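 hTfR captured on Ni-NTA chip then amine-coupled; peptides run single-cycle kinetics at 5–100 nM in 10 mM HEPES pH 8.0, 150 mM NaCl, 0.05% Tween 20, 0.1% BSA, 1.0% DMSO. KD from least-squares curve fitting of sensorgrams.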

[1] = hTfR binding by SPR, hTfR No. 894 variant peptides, linker-added peptides and payload conjugates (Table 2), read-out: KD value obtained from the SPR measurement
[2] = surface plasmon resonance, peptide vs hTfR, read-out: KD value, hTfR binding by SPR (class symbol)
[3] = surface plasmon resonance, peptide vs hTfR, read-out: KD value for hTfR by SPR (class symbol)

Kd [1]: < 1 nM
SMILES: CC[C@H](C)[C@@H]1NC(=O)[C@H](Cc2ccc(O)cc2)NC(=O)[C@H](Cc2ccc(O)cc2)NC(=O)[C@H](CC(N)=O)NC(=O)[C@H](Cc2c[nH]c3ccccc23)NC(=O)[C@H](C(C)C)NC(=O)[C@H](Cc2ccccc2)N(C)C(=O)[C@H](C(C)C)NC(=O)[C@H](C)NC(=O)CSC[C@@H](C(=O)NCCOCCOCCOCCOCCC(=O)NCCOCCOCCOCCOCCC(=O)N[C@@H](CCCCNC(=O)C2CCC(CN3C(=O)C=CC3=O)CC2)C(N)=O)NC(=O)[C@H](Cc2ccc(O)cc2)N(C)C(=O)[C@H](Cc2ccc(O)cc2)NC(=O)[C@H](CCCNC(=N)N)NC(=O)[C@H](CCCNC(=N)N)NC(=O)[C@H]([C@@H](C)CC)NC1=O (stereo partly shown) [compound 181]

Kd [2]: 1 to 100 nM
SMILES: CC[C@H](C)[C@@H]1NC(=O)[C@H](Cc2ccc(O)cc2)NC(=O)[C@H](Cc2ccc(O)cc2)NC(=O)[C@H](CC(N)=O)NC(=O)[C@H](Cc2c[nH]c3ccccc23)NC(=O)[C@H](C(C)C)NC(=O)[C@H](Cc2ccccc2)N(C)C(=O)[C@H](C(C)C)NC(=O)[C@H](C)NC(=O)CSC[C@@H](C(N)=O)NC(=O)[C@H](Cc2ccc(O)cc2)N(C)C(=O)[C@H](Cc2ccc(O)cc2)NC(=O)[C@H](CCCNC(=N)N)NC(=O)[C@H](CCCCN)NC(=O)[C@H]([C@@H](C)CC)NC1=O [compound 293]

SMILES: CC[C@H](C)[C@@H]1NC(=O)[C@H](Cc2ccc(O)cc2)NC(=O)[C@H](Cc2ccc(O)cc2)NC(=O)[C@H](CC(N)=O)NC(=O)[C@H](Cc2c[nH]c3ccccc23)N(C)C(=O)[C@H](C(C)C)NC(=O)[C@H](Cc2ccccc2)N(C)C(=O)[C@H](C(C)C)NC(=O)[C@H](C)NC(=O)CSC[C@@H](C(=O)NCC(=O)NCC(=O)N[C@@H](CCCNC(=N)N)C(=O)N[C@@H](CO)C(=O)N[C@@H](CCC(=O)O)C(=O)N[C@@H](CO)C(=O)N[C@@H](CCCCNC(=O)C2CCC(CN3C(=O)C=CC3=O)CC2)C(N)=O)NC(=O)[C@H](Cc2ccc(O)cc2)N(C)C(=O)[C@H](Cc2ccc(O)cc2)NC(=O)[C@H](CCCNC(=N)N)NC(=O)[C@H](CCCNC(=N)N)NC(=O)[C@H]([C@@H](C)CC)NC1=O (stereo partly shown) [compound 199]
Kd [1]: 1 to 100 nM

Kd (surface plasmon resonance, hTfR, read-out: KD value for hTfR by SPR (class symbol)): 1 to 100 nM
SMILES: CC[C@H](C)[C@@H]1NC(=O)[C@H](Cc2ccc(OC)cc2)NC(=O)[C@H](Cc2ccc(O)cc2)NC(=O)[C@H](CC(N)=O)NC(=O)[C@H](Cc2c[nH]c3ccccc23)N(C)C(=O)[C@H](C(C)C)NC(=O)[C@H](Cc2cccc(Cl)c2)N(C)C(=O)[C@H](C(C)C)NC(=O)[C@H](C)NC(=O)CSC[C@@H](C(=O)N[C@H](CCC(=O)O)C(=O)O)NC(=O)[C@H](Cc2ccc(O)cc2)N(C)C(=O)[C@H](Cc2ccccc2)NC(=O)[C@H](CCCNC(=N)N)NC(=O)[C@H](CCCNC(=N)N)NC(=O)[C@H]([C@@H](C)CC)NC1=O [compound 387]

Kd [2]: 1 to 100 nM
SMILES: CC[C@H](C)[C@@H]1NC(=O)[C@H](Cc2ccc(OC)cc2)NC(=O)[C@H](Cc2ccc(O)cc2)NC(=O)[C@H](CC(N)=O)NC(=O)[C@H](Cc2c[nH]c3ccccc23)N(C)C(=O)[C@H](C(C)C)NC(=O)[C@H](Cc2cccc(Cl)c2)N(C)C(=O)[C@H](C(C)C)NC(=O)[C@H](C)NC(=O)CSC[C@@H](C(=O)NCCOCCOCCOCCOCCC(N)=O)NC(=O)[C@H](Cc2ccc(O)cc2)N(C)C(=O)[C@H](Cc2ccccc2)NC(=O)[C@@H](CCCNC(=N)N)NC(=O)[C@H](CCCNC(=N)N)NC(=O)C(C)(C)NC1=O [compound 333] ({CH2CO}-AV[NMePhe(3-Cl)]V[NMeW]NYY(Me)I[Aib]R[dR]F[NMeY]C[PEG4]-NH2; thioether N-15)

SMILES: CC[C@H](C)[C@@H]1NC(=O)[C@H](Cc2ccc(O)cc2)NC(=O)[C@H](Cc2ccc(O)cc2)NC(=O)[C@H](CC(N)=O)NC(=O)[C@H](Cc2c[nH]c3ccccc23)N(C)C(=O)[C@H](C(C)C)NC(=O)[C@H](Cc2ccccc2)N(C)C(=O)[C@H](C(C)C)NC(=O)[C@H](C)NC(=O)CSC[C@@H](C(=O)NCC(=O)NCC(=O)N[C@@H](CCCNC(=N)N)C(=O)NCC(=O)N[C@@H](CCCNC(=N)N)C(=O)N[C@@H](CO)C(=O)N[C@@H](CCCCNC(=O)C2CCC(CN3C(=O)C=CC3=O)CC2)C(N)=O)NC(=O)[C@H](Cc2ccc(O)cc2)N(C)C(=O)[C@H](Cc2ccc(O)cc2)NC(=O)[C@H](CCCNC(=N)N)NC(=O)[C@H](CCCNC(=N)N)NC(=O)[C@H]([C@@H](C)CC)NC1=O (stereo partly shown) [compound 198]
Kd [1]: 1 to 100 nM

Kd [3]: 100 to 1000 nM
SMILES: CC[C@H](C)[C@@H]1NC(=O)[C@@H]2CCCNC(=O)CC[C@H](NC(=O)[C@H](C(C)C)NC(=O)[C@H](C)NC(=O)CSC[C@@H](C(N)=O)NC(=O)[C@H](Cc3ccc(O)cc3)N(C)C(=O)[C@H](Cc3ccc(O)cc3)NC(=O)[C@H](CCCNC(=N)N)NC(=O)[C@H](CCCNC(=N)N)NC(=O)[C@H]([C@@H](C)CC)NC1=O)C(=O)N[C@@H](C(C)C)C(=O)N(C)[C@@H](Cc1c[nH]c3ccccc13)C(=O)N[C@@H](CC(N)=O)C(=O)N[C@@H](Cc1ccc(O)cc1)C(=O)N2 [compound 415] ({CH2CO}-AVEV[NMeW]NY[Orn]IIRRY[NMeY]C-NH2; lactam 3-8 (inferred); thioether N-15 (inferred))

Kd (SPR, peptides, linker-added peptides and FITC conjugates, Patent ID 203-230, read-out: KD): 100 to 1000 nM
SMILES: CC[C@H](C)[C@@H]1NC(=O)[C@H](Cc2ccc(OC)cc2)NC(=O)[C@H](Cc2ccc(O)cc2)NC(=O)[C@H](CC(N)=O)NC(=O)[C@H](Cc2c[nH]c3ccccc23)N(C)C(=O)[C@H](C(C)C)NC(=O)[C@H](Cc2cccc(Cl)c2)N(C)C(=O)[C@H](CCC(=O)O)NC(=O)[C@H](C)NC(=O)CSC[C@@H](C(N)=O)NC(=O)[C@H](Cc2ccc(O)cc2)N(C)C(=O)[C@H](Cc2ccccc2)NC(=O)[C@@H](CCCNC(=N)N)NC(=O)[C@H](C)NC(=O)[C@H]([C@@H](C)CC)NC1=O [compound 226] ({CH2CO}-AE[NMePhe(3-Cl)]V[NMeW]NYY(Me)IIA[dR]F[NMeY]C-NH2; thioether N-15)

Kd [3]: 1 to 100 nM
SMILES: CC[C@H](C)[C@@H]1NC(=O)[C@H](Cc2ccc(O)cc2)NC(=O)[C@H](Cc2ccc(O)cc2)NC(=O)[C@H](CC(N)=O)NC(=O)[C@H](Cc2cn(CC(=O)O)c3ccccc23)NC(=O)[C@H](C(C)C)NC(=O)[C@H](Cc2cccc(Cl)c2)N(C)C(=O)[C@@H]2CCCC(=O)NCCCCC[C@H](NC(=O)[C@H]([C@@H](C)CC)NC1=O)C(=O)N[C@H](CCCNC(=N)N)C(=O)N[C@@H](Cc1ccccc1)C(=O)N(C)[C@@H](Cc1ccc(O)cc1)C(=O)N[C@H](C(N)=O)CSCC(=O)N[C@@H](C)C(=O)N2 [compound 419] ({CH2CO}-A[Aad][NMePhe(3-Cl)]V[Trp(1-CH2COOH)]NYYII[hLys][dR]F[NMeY]C-NH2; lactam 2-11; thioether N-15)

Kd [2]: 1 to 100 nM
SMILES: CC[C@H](C)[C@@H]1NC(=O)[C@H](Cc2ccc(OC)cc2)NC(=O)[C@H](Cc2ccc(O)cc2)NC(=O)[C@H](CC(N)=O)NC(=O)[C@H](Cc2c[nH]c3ccccc23)N(C)C(=O)[C@H](C(C)C)NC(=O)[C@H](Cc2cccc(Cl)c2)N(C)C(=O)[C@H](C(C)C)NC(=O)[C@H](C)NC(=O)CSC[C@@H](C(=O)NCCOCCOCCOCCOCCC(N)=O)NC(=O)[C@H](Cc2ccc(O)cc2)N(C)C(=O)[C@H](Cc2ccccc2)NC(=O)[C@@H](CCCNC(=N)N)NC(=O)[C@H](CCCNC(=N)N)NC(=O)[C@H](C(C)(C)C)NC1=O [compound 327] ({CH2CO}-AV[NMePhe(3-Cl)]V[NMeW]NYY(Me)I[Tle]R[dR]F[NMeY]C[PEG4]-NH2; thioether N-15)

Kd (binding to hTfR by SPR, Table 2 peptides, read-out: KD value (SPR) class): 1 to 100 nM
SMILES: CC[C@H](C)[C@@H]1NC(=O)[C@H](Cc2ccc(O)cc2)NC(=O)[C@H](Cc2ccc(O)cc2)NC(=O)[C@H](CC(N)=O)NC(=O)[C@H](Cc2c[nH]c3ccc(F)cc23)NC(=O)[C@H](C(C)C)NC(=O)[C@H](Cc2ccccc2)N(C)C(=O)[C@H](C(C)C)NC(=O)[C@H](C)NC(=O)CSC[C@@H](C(N)=O)NC(=O)[C@H](Cc2ccc(O)cc2)N(C)C(=O)[C@H](Cc2ccc(O)cc2)NC(=O)[C@H](CCCNC(=N)N)NC(=O)[C@H](CCCNC(=N)N)NC(=O)[C@H]([C@@H](C)CC)NC1=O [compound 269]

Kd (SPR, hTfR No. 894 variants with PEG12c linker (Table 2), read-out: KD): 1 to 100 nM
SMILES: CC[C@H](C)[C@@H]1NC(=O)[C@H](Cc2ccc(O)cc2)NC(=O)[C@H](Cc2ccc(O)cc2)NC(=O)[C@H](CC(N)=O)NC(=O)[C@H](Cc2ccc(F)cc2)NC(=O)[C@H](C(C)C)NC(=O)[C@H](Cc2ccccc2)N(C)C(=O)[C@H](C(C)C)NC(=O)[C@H](C)NC(=O)CSC[C@@H](C(=O)NCCOCCOCCOCCOCCOCCOCCOCCOCCOCCOCCOCCOCCC(N)=O)NC(=O)[C@H](Cc2ccc(O)cc2)N(C)C(=O)[C@H](Cc2ccc(O)cc2)NC(=O)[C@H](CCCNC(=N)N)NC(=O)[C@H](CCCNC(=N)N)NC(=O)[C@H]([C@@H](C)CC)NC1=O [compound 119] ({CH2CO}-AV[NMeF]V[Phe(4-F)]NYYIIRRY[NMeY]C[PEG12]-NH2; thioether N-15)

Kd (SPR, hTfR, class symbols A-D, read-out: KD (column without head, continuation of the table series)): < 1 nM
SMILES: CC[C@H](C)[C@@H]1NC(=O)[C@H](Cc2ccc(OC)cc2)NC(=O)[C@H](Cc2ccc(O)cc2)NC(=O)[C@H](CC(N)=O)NC(=O)[C@H](Cc2c[nH]c3ccccc23)NC(=O)[C@H](C(C)C)NC(=O)[C@H](Cc2cccc(Cl)c2)N(C)C(=O)[C@H](C(C)C)NC(=O)[C@H](C)NC(=O)CSC[C@@H](C(=O)NCCOCCOCCOCCOCCC(N)=O)NC(=O)[C@H](Cc2ccc(O)cc2)N(C)C(=O)[C@H](Cc2ccccc2)NC(=O)[C@H](CCCNC(=N)N)NC(=O)[C@H](CCCNC(=N)N)NC(=O)[C@H]([C@@H](C)CC)NC1=O [compound 502]
